Results from ChEMBL document CHEMBL3046007, “Isonicotinic acid hydrazide derivatives: synthesis, antimicrobial activity, and QSAR studies” (Med Chem Res, 2012).
In brackets after ≈: the same amount, converted by molar mass.

Assays:
[1] = Cytotoxicity against Homo sapiens (human) HEL cells; type: cell-based
[2] = system: Vaccinia virus; experiment: Antiviral activity against Vaccinia virus infected human HEL cells assessed as inhibition of virus-induced cytopathicity; type: functional, organism-based; conditions: Orthopoxvirus vaccinia
[3] = Cytotoxicity against Chlorocebus aethiops (African green monkey) Vero cells assessed as alteration in cell morphology; type: cell-based; conditions: chlorocebus sabaeus
[4] = system: Coxsackievirus B4; experiment: Antiviral activity against Human coxsackievirus B4 infected Vero cells assessed as inhibition of virus-induced cytopathicity; type: functional, organism-based; conditions: Enterovirus B
[5] = system: Bacillus subtilis; experiment: Antimicrobial activity against Bacillus subtilis after 24 hr by serial dilution method; type: functional
[6] = system: Respiratory syncytial virus; experiment: Antiviral activity against Respiratory syncytial virus infected human HeLa cells assessed as inhibition of virus-induced cytopathicity; type: functional, organism-based
[7] = Cytotoxicity against Homo sapiens (human) MT4 cells; type: cell-based
[8] = system: Human immunodeficiency virus 1; experiment: Antiviral activity against Human immunodeficiency virus 1 IIIB infected human MT4 cells assessed as inhibition of virus-induced cytopathicity; type: functional, organism-based
[9] = system: Candida albicans; experiment: Antimicrobial activity against Candida albicans after 48 hr by serial dilution method; type: functional
[10] = system: Punta Toro virus; experiment: Antiviral activity against Punta Toro virus infected Vero cells assessed as inhibition of virus-induced cytopathicity; type: functional, organism-based
[11] = system: Human immunodeficiency virus 2; experiment: Antiviral activity against Human immunodeficiency virus type 2 (ISOLATE ROD) infected human MT4 cells assessed as inhibition of virus-induced cytopathicity; type: functional, organism-based; conditions: Human immunodeficiency virus 2, ISOLATE ROD
[12] = system: Sindbis virus; experiment: Antiviral activity against Sindbis virus infected Vero cells assessed as inhibition of virus-induced cytopathicity; type: functional, organism-based
[13] = system: Human alphaherpesvirus 2; experiment: Antiviral activity against Human herpesvirus 2 strain G infected human HEL cells assessed as inhibition of virus-induced cytopathicity; type: functional, organism-based; conditions: Human alphaherpesvirus 2, strain G
[14] = Cytotoxicity against Homo sapiens (human) HeLa cells; type: cell-based
[15] = system: Human alphaherpesvirus 1; experiment: Antiviral activity against Human herpesvirus 1 strain KOS infected in human HEL cells assessed as inhibition of virus-induced cytopathicity; type: functional, organism-based; conditions: Human alphaherpesvirus 1, KOS
[16] = system: Vesicular stomatitis virus; experiment: Antiviral activity against Vesicular stomatitis virus infected human HeLa cells assessed as inhibition of virus-induced cytopathicity; type: functional, organism-based
[17] = system: Coxsackievirus B4; experiment: Antiviral activity against Human coxsackievirus B4 infected human HeLa cells assessed as inhibition of virus-induced cytopathicity; type: functional, organism-based; conditions: Enterovirus B
[18] = system: Escherichia coli; experiment: Antimicrobial activity against Escherichia coli after 24 hr by serial dilution method; type: functional
[19] = system: Aspergillus niger; experiment: Antimicrobial activity against Aspergillus niger after 7 days by serial dilution method; type: functional
[20] = system: Human respirovirus 3; experiment: Antiviral activity against Human parainfluenza virus 3 infected Vero cells assessed as inhibition of virus-induced cytopathicity; type: functional, organism-based; conditions: Human respirovirus 3, Vero
[21] = system: Staphylococcus aureus; experiment: Antimicrobial activity against Staphylococcus aureus after 24 hr by serial dilution method; type: functional
[22] = system: Human alphaherpesvirus 1; experiment: Antiviral activity against TK(-) aciclovir-resistant Human herpesvirus 1 strain KOS infected in human HEL cells assessed as inhibition of virus-induced cytopathicity; type: functional, organism-based; conditions: Human alphaherpesvirus 1, KOS
[23] = system: Mammalian orthoreovirus 1; experiment: Antiviral activity against Mammalian orthoreovirus 1 infected Vero cells assessed as inhibition of virus-induced cytopathicity; type: functional, organism-based; conditions: Mammalian orthoreovirus 1, Vero

SMILES | MCC [1] [µg/mL] | EC50 [2] [µg/mL] | MCC [3] [µg/mL] | EC50 [4] [µg/mL] | -logMIC [5] | EC50 [6] [µg/mL] | CC50 [7] [µg/mL] | EC50 [8] [µg/mL] | -logMIC [9] | EC50 [10] [µg/mL] | EC50 [11] [µg/mL] | EC50 [12] [µg/mL] | EC50 [13] [µg/mL] | MCC [14] [µg/mL] | EC50 [15] [µg/mL] | EC50 [16] [µg/mL] | EC50 [17] [µg/mL] | -logMIC [18] | -logMIC [19] | -logMIC [21] | further results
COc1cccc(OC)c1/C=N/N(C(=O)c1ccccc1)C(=O)c1ccncc1 | > 100 | > 100 | 100 | > 20 | 2.49 | > 4 | 12 (≈ 30.8 µM) | > 12 | 3.1 | > 20 | > 12 | > 20 | > 100 | 20 | > 100 | > 4 | > 4 | 2.49 | 2.49 | 2.49 | EC50 [20]: > 20 µg/mL; EC50 [22]: > 100 µg/mL; EC50 [23]: > 20 µg/mL
Cc1ccc(/C=N/N(C(=O)c2ccccc2)C(=O)c2ccncc2)cc1 | > 100 | > 100 | ≥ 20 | > 20 | 2.14 | > 20 | 42 (≈ 122 µM) | > 42 | 2.74 | > 20 | > 42 | > 20 | > 100 | 100 | > 100 | > 20 | > 20 | 2.44 | 2.44 | 2.44 | EC50 [20]: > 20 µg/mL; EC50 [22]: > 100 µg/mL; EC50 [23]: > 20 µg/mL
O=C(c1ccccc1)N(/N=C/c1ccccc1O)C(=O)c1ccncc1 |  |  |  |  | 2.44 |  |  |  | 3.04 |  |  |  |  |  |  |  |  | 2.44 | 2.44 | 1.84 | 
O=C(NNC(=O)c1cc([N+](=O)[O-])ccc1Cl)c1ccncc1 |  |  |  |  | 2.11 |  | 116 (≈ 361 µM) | > 116 | 2.41 |  | > 116 |  |  |  |  |  |  | 2.11 | 2.41 | 2.11 | 
O=C(NNC(=O)c1ccc(Cl)cc1)c1ccncc1 |  |  |  |  | 2.34 |  | > 120 | > 120 | 2.64 |  | > 120 |  |  |  |  |  |  | 1.74 | 1.74 | 2.34 | 
CC(Cl)C(=O)NNC(=O)c1ccncc1 (stereo not drawn) |  |  |  |  | 1.96 |  | 77.5 (≈ 340 µM) | > 77.5 | 2.26 |  | > 77.5 |  |  |  |  |  |  | 2.26 | 2.26 | 2.26 | 
COc1cc(/C=N/N(C(=O)c2ccccc2)C(=O)c2ccncc2)ccc1O | > 100 | > 100 | ≥ 100 | > 100 | 2.18 | > 20 | 105 (≈ 280 µM) | > 105 | 3.08 | > 100 | > 105 | > 100 | > 100 | 100 | > 100 | > 20 | > 20 | 2.48 | 2.48 | 2.48 | EC50 [20]: > 100 µg/mL; EC50 [22]: > 100 µg/mL; EC50 [23]: > 100 µg/mL
CCOc1cc(/C=N/N(C(=O)c2ccccc2)C(=O)c2ccncc2)ccc1O | > 100 | > 100 | > 100 | > 100 | 2.19 | > 100 | ≥ 92 | > 92 | 2.79 | > 100 | > 92 | > 100 | > 100 | > 100 | > 100 | > 100 | > 100 | 2.49 | 2.19 | 2.19 | EC50 [20]: > 100 µg/mL; EC50 [22]: > 100 µg/mL; EC50 [23]: > 100 µg/mL
CSc1ccc(/C=N/N(C(=O)c2ccccc2)C(=O)c2ccncc2)cc1 | > 100 | > 100 | ≥ 100 | 9 (≈ 24 µM) | 2.18 | > 100 | 69 (≈ 184 µM) | > 69 | 2.78 | > 100 | > 69 | > 100 | > 100 | > 100 | > 100 | > 100 | > 100 | 2.48 | 2.48 | 2.18 | EC50 [20]: > 100 µg/mL; EC50 [22]: > 100 µg/mL; EC50 [23]: > 100 µg/mL
C/C=C/C=N/NC(=O)c1ccncc1 | 100 | > 20 | 100 | > 20 | 1.88 | > 20 | 11 (≈ 58.1 µM) | > 11 | 2.48 | > 20 | > 11 | > 20 | > 20 | 100 | > 20 | > 20 | > 20 | 1.88 | 2.18 | 1.88 | EC50 [20]: > 20 µg/mL; EC50 [22]: > 20 µg/mL; EC50 [23]: > 20 µg/mL
OC(Cn1cncn1)(Cn1cncn1)c1ccc(F)cc1F [FLUCONAZOLE] |  |  |  |  |  |  |  |  | 2.64 |  |  |  |  |  |  |  |  |  | 2.64 |  | 
NNC(=O)c1ccncc1 [ISONIAZID] |  |  |  |  | 1.74 |  |  |  | 2.34 |  |  |  |  |  |  |  |  | 1.74 | 2.04 | 2.04 | 
Cc1ccnc2c1NC(=O)c1cccnc1N2C1CC1 [NEVIRAPINE] |  |  |  |  |  |  | > 4 |  |  |  | > 4 |  |  |  |  |  |  |  |  |  | 
CCn1cc(C(=O)O)c(=O)c2cc(F)c(N3CCNCC3)cc21 [NORFLOXACIN] |  |  |  |  | 2.61 |  |  |  |  |  |  |  |  |  |  |  |  | 2.61 |  | 2.61 | 
O=C(N/N=C/c1ccccc1O)c1ccncc1 [SALINAZID] |  |  |  |  | 1.98 |  | 2.52 (≈ 10.4 µM) | > 2.52 | 2.29 |  | > 2.52 |  |  |  |  |  |  | 2.29 | 2.29 | 1.98 | 
Cc1cn([C@H]2C[C@H](N=[N+]=[N-])[C@@H](CO)O2)c(=O)[nH]c1=O [ZIDOVUDINE] |  |  |  |  |  |  | > 25 |  |  |  |  |  |  |  |  |  |  |  |  |  | 
